{"source": "paper PMC7044277", "about": "(Nature Communications, 2020)", "type_in_all_cases": "cell-based", "key": {"320 non-olfactory GPCRs [1]": {"target": "T1, 320 non-olfactory GPCRs (Homo sapiens, UniProt P18089)", "T1 construct": "expressed in transfected cells; host or cells: HTLA cells", "T1 sequence (P18089 whole entry)": "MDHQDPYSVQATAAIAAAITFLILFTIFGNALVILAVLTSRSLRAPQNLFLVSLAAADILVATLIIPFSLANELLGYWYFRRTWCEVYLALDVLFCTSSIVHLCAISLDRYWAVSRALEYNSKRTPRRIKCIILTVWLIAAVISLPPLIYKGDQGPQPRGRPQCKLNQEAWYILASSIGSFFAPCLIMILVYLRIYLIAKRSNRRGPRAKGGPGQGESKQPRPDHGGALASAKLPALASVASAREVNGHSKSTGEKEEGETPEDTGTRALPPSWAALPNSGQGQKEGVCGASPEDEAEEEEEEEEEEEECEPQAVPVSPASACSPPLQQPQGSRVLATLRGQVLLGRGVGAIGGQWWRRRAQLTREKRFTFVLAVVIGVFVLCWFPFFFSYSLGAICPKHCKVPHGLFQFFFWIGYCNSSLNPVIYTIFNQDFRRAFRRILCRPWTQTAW"}, "320 non-olfactory GPCRs [2]": {"target": "T2, 320 non-olfactory GPCRs (Homo sapiens, UniProt P37288)", "T2 construct": "expressed in transfected cells; host or cells: HTLA cells", "T2 sequence (P37288 whole entry)": "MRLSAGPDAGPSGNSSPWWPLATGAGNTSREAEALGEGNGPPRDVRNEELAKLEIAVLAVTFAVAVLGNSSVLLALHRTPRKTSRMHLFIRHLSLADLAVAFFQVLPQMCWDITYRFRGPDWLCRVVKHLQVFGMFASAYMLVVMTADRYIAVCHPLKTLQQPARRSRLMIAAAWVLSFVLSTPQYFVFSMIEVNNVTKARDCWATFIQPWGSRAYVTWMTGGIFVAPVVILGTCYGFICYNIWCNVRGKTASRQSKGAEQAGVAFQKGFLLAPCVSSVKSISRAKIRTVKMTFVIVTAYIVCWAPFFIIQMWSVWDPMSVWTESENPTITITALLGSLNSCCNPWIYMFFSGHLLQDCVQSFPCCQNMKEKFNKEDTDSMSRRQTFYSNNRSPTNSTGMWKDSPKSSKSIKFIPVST"}, "320 non-olfactory GPCRs [3]": {"target": "T3, 320 non-olfactory GPCRs (Homo sapiens, UniProt Q8IZF3)", "T3 construct": "expressed in transfected cells; host or cells: HTLA cells", "T3 sequence (Q8IZF3 22-695)": "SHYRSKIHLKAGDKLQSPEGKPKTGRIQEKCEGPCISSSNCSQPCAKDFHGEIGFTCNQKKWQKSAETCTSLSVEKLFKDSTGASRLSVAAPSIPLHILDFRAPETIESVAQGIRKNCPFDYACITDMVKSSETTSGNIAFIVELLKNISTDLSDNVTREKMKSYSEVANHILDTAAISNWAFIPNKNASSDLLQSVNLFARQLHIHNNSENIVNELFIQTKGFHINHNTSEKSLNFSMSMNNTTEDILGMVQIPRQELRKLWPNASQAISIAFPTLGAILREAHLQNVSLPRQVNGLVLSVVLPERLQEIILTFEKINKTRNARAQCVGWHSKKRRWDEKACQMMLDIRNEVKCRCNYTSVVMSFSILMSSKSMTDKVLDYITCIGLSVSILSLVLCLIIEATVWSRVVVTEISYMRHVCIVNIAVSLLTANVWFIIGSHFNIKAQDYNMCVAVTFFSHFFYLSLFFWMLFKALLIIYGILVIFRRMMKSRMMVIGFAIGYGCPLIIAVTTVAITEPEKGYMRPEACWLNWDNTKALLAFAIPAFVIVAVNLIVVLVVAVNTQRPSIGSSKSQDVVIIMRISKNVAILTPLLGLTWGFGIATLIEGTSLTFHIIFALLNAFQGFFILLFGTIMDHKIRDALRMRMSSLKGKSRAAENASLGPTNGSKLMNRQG"}, "320 non-olfactory GPCRs [4]": {"target": "T4, 320 non-olfactory GPCRs (Homo sapiens, UniProt Q8NFJ6)", "T4 construct": "expressed in transfected cells; host or cells: HTLA cells", "T4 sequence (Q8NFJ6 whole entry)": "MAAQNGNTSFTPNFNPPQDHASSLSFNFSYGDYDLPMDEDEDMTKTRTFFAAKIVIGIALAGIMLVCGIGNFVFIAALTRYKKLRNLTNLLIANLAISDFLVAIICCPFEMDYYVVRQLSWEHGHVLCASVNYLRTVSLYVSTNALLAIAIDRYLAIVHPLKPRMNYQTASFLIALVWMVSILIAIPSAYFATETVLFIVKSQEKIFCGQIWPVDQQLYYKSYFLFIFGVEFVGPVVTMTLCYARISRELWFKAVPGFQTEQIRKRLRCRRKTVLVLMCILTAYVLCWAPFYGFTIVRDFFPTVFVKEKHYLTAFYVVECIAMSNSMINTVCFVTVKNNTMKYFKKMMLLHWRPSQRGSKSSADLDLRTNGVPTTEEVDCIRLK", "conditions": "receptor PK2; replicate values, Fig_4g"}}, "note": "Values joined by “and” are separate entries in the source; they are usually repeats but may differ in a detail not shown here. Identical values can stand only once.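 Wherever Fold of Basal is given: compound tested at 1 µM final concentration.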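 Wherever GPCRome agonism screen response is given: fold over basal response of each receptor without drug.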", "data": [{"smiles": "CCOc1cccc2cc(C(C)NCC3(O)CCCCC3)oc12", "note": "(stereo not shown) [O4LE6]", "values": [{"measurement": "Fold of Basal", "setting": "320 non-olfactory GPCRs [1]", "result": "0.5251 and 0.72 and 0.7774 and 1.019"}, {"measurement": "Fold of Basal", "setting": "320 non-olfactory GPCRs [2]", "result": "0.5721 and 0.4612 and 0.3897 and 0.4481"}, {"measurement": "Fold of Basal", "setting": "320 non-olfactory GPCRs [3]", "result": "1.314 and 0.8065 and 0.6945"}, {"measurement": "GPCRome agonism screen response", "setting": "320 non-olfactory GPCRs [4]", "result": "0.6601 and 1.45 and 1.515 and 1.156"}]}]}
